From publication PMC4154712 (Journal of medicinal chemistry, 2014)
Blank lines part the entries; values can stand above or below the molecule they belong to.

Columns and labels:
[1] = tested on: tubulin; assay: Tubulin assembly; format: biochemical; settings: for IC50: read-out: Tubulin Assembly IC50 ± SD, tubulin at 10 μM
[2] = tested on: HeLa cells; assay: Cell cycle analysis in HeLa cells; format: cell-based, human; settings: 24 h; for cell cycle arrest, in words: 20 nM; for cell cycle arrest (G2/M accumulation), in words: 100 nM
[3] = tested on: MCF-7 human breast carcinoma cells; assay: cells; settings: MCF7, 96 h, read-out: MCF-7 IC50 ± SD
[4] = tested on: human liver hepatocellular carcinoma cell line HepG2; assay: Growth inhibition of HepG2 cells; format: cell-based; settings: HepG2, 48 h, read-out: IC50 ± SD HepG2
[5] = tested on: HeLa (human cervical carcinoma) cells; settings: read-out: IC50 ± SD HeLA; MTT method; 48 h; ref 10b; cited from earlier work
[6] = tested on: HT29 (human colon adenocarcinoma) cells; settings: read-out: IC50 ± SD HT-29; MTT method; 48 h; ref 10b; cited from earlier work
[7] = tested on: A549 (human lung carcinoma) cells; settings: read-out: IC50 ± SD A549; MTT method; 48 h; ref 10b; cited from earlier work
[8] = tested on: PC-3 cells; assay: Cell cycle analysis in PC-3 cells; format: cell-based, human; settings: PC-3, lowest concentration (500 nM), 24 h
[9] = tested on: RD cells; assay: Cell cycle analysis in RD cells; format: cell-based; settings: lowest concentration (500 nM), 24 h
[10] = tested on: HepG2 cells; assay: Cell cycle analysis in HepG2 cells; format: cell-based, human; settings: HepG2, lowest concentration (500 nM), 24 h
[11] = in vitro; settings: human, Caco-2
[12] = tested on: HCT116 (human colon carcinoma cells); settings: read-out: IC50 ± SD HCT116; ref 10b; cited from earlier work

IC50 [1]: > 20 µM
Molecule: COc1ccc(C(=O)c2ccn(-c3cc(OC)c(OC)c(OC)c3)c2)cc1OC(C)C [Compound 53, (3-Isopropoxy-4-methoxyphenyl)(1-(3,4,5-trimethoxyphenyl)-1H-pyrrol-3-yl)methanone]

IC50 [1]: ≤ 1 µM
Molecule: COc1cc(C(=O)c2ccn(-c3cccc(C)c3)c2)cc(OC)c1OC [Compound 33, (1-(3-Tolyl)-1H-pyrrol-3-yl)(3,4,5-trimethoxyphenyl)methanone]

IC50 [1]: 15 ± 0.07 µM
Molecule: COc1ccc(-n2ccc(C(=O)c3cc(OC)c(OC)c(OC)c3)c2)cc1[N+](=O)[O-] [Compound 45, (1-(4-Methox y-3-ni tro phenyl)-1H-pyrrol-3-yl)(3,4,5-trimethoxyphenyl)methanone]

IC50 [1]: > 20 µM
Molecule: COc1cc(C(=O)c2ccn(-c3ccc(OC(C)C)cc3)c2)cc(OC)c1OC [Compound 40, (1-(4-Isopropoxyphenyl)-1H-pyrrol-3-yl)(3,4,5-trimethoxyphenyl)-methanone]

IC50 [1]: > 20 µM
Molecule: (3-Isopropoxy-4-methoxyphenyl)(1-(3,4,5-trimethoxyphenyl)-1H-pyrrol-3-yl)methanone [Compound 52]

IC50 [4]: 0.177 ± 0.0016 µM
Molecule: CC[C@]1(O)C[C@H]2CN(CCc3c([nH]c4ccccc34)[C@@](C(=O)OC)(c3cc4c(cc3OC)N(C=O)[C@H]3[C@@](O)(C(=O)OC)[C@H](OC(C)=O)[C@]5(CC)C=CCN6CC[C@]43[C@@H]65)C2)C1 [VCR, vincristine]

IC50 [1]: > 20 µM
Molecule: COc1cc(C(=O)c2ccn(-c3cccc(OCc4ccccc4)c3)c2)cc(OC)c1OC [Compound 41, (1-(3-(Benzyloxy)phenyl)-1H-pyrrol-3-yl)(3,4,5-trimethoxyphenyl)methanone]

IC50 [1]: > 20 µM
Molecule: COc1cc(-n2ccc(C(=O)c3ccccc3)c2)cc(OC)c1OC [Compound 50, Phenyl(1-(3,4,5-trimethoxyphenyl)-1H-pyrrol-3-yl)methanone]

IC50 [1]: ≤ 1 µM
Molecule: COc1cc(C(=O)c2ccn(-c3ccc(C)cc3)c2)cc(OC)c1OC [Compound 34, (1-(4-Tolyl)-1H-pyrrol-3-yl)(3,4,5-trimethoxyphenyl)methanone]

Second part, the molecule before the results:

Molecule: COc1cc(C(=O)c2ccn(-c3ccc([N+](=O)[O-])cc3)c2)cc(OC)c1OC [Compound 20, (1-(4-Nitrophenyl)-1H-pyrrol-3-yl)(3,4,5-trimethoxyphenyl)-methanone]
IC50 [1]: > 20 µM

Molecule: COc1cc(C(=O)c2ccn(-c3cccc(N4CCCCC4)c3)c2)cc(OC)c1OC [Compound 31, (1-(3-(Piperidin-1-yl)phenyl)-1H-pyrrol-3-yl)(3,4,5-trimethoxyphenyl)methanone]
IC50 [1]: > 20 µM

Molecule: COc1cc(C(=O)c2ccn(-c3ccccc3)c2)cc(OC)c1OC [Compound 4, (1-Phenyl-1H-pyrrol-3-yl)-(3,4,5-trimethoxyphenyl)methanone]
cell cycle arrest, in words [2]: only a minimal effect
cell cycle arrest (G2/M accumulation), in words [2]: effectively arrested cell cycle progression

Molecule: COc1cc(C(=O)c2ccn(-c3ccccc3F)c2)cc(OC)c1OC [Compound 15, (1-(2-Fluorophenyl)-1H-pyrrol-3-yl)(3,4,5-trimethoxyphenyl)-methanone]
IC50 [1]: ≤ 1 µM

Molecule: O=C(c1ccccc1)c1ccn(-c2ccccc2)c1 [Compound 11, Phenyl(1-phenyl-1H-pyrrol-3-yl)methanone]
effect on tubulin polymerization (in words) [1]: did not inhibit tubulin assembly
IC50 [1]: > 20 µM

Molecule: COc1cc(C(=O)c2ccn(C)c2)cc(OC)c1OC [Compound 10, (1-Methyl-1H-pyrrol-3-yl)(3,4,5-trimethoxyphenyl)methanone]
effect on tubulin polymerization (in words) [1]: did not inhibit tubulin assembly

Molecule: COc1cc(C(=O)c2ccn(-c3ccccc3[N+](=O)[O-])c2)cc(OC)c1OC [Compound 18, (1-(2-Nitrophenyl)-1H-pyrrol-3-yl)(3,4,5-trimethoxyphenyl)-methanone]
IC50 [1]: > 20 µM

Molecule: COc1cc(C(=O)c2ccn(-c3cccc([N+](=O)[O-])c3)c2)cc(OC)c1OC [Compound 19, (1-(3-Nitrophenyl)-1H-pyrrol-3-yl)(3,4,5-trimethoxyphenyl)-methanone]
IC50 [3]: 0.23 ± 0.06 µM

Molecule: CC[C@]1(O)C[C@@H]2CN(CCc3c([nH]c4ccccc34)[C@@](C(=O)OC)(c3cc4c(cc3OC)N(C)[C@H]3[C@@](O)(C(=O)OC)[C@H](OC(C)=O)[C@]5(CC)C=CCN6CC[C@]43[C@@H]65)C2)C1 [VBL, vinblastine]
IC50 [5]: 0.01 ± 0.0006 µM
IC50 [6]: 0.03 ± 0.0008 µM
IC50 [7]: 0.02 ± 0.002 µM

Molecule: COc1cc(C(=O)c2ccn(-c3cccc(NS(C)(=O)=O)c3)c2)cc(OC)c1OC [Compound 28, N-(3-(3-(3,4,5-Trimethoxybenzoyl)-1H-pyrrol-1-yl)phenyl)-methanesulfonamide]
IC50 [1]: ≤ 1 µM

Molecule: CC(=O)O[C@H]1C(=O)[C@@]2(C)[C@H]([C@H](OC(=O)c3ccccc3)[C@]3(O)C[C@H](OC(=O)[C@H](O)[C@@H](NC(=O)c4ccccc4)c4ccccc4)C(C)=C1C3(C)C)[C@]1(OC(C)=O)CO[C@@H]1C[C@@H]2O [PTX, paclitaxel]
IC50 [4]: 2.037 ± 0.002 µM
IC50 [7]: 0.007 ± 0.002 µM

Molecule: COc1cc(C(=O)c2ccn(-c3cccc(NC(=N)N)c3)c2)cc(OC)c1OC.Cl [Compound 27, 1-(3-(3-(3,4,5-Trimethoxybenzoyl)-1H-pyrrol-1-yl)phenyl)-guanidine Hydrochloride]
cell cycle arrest, in words [8]: effectively arrested cell cycle progression
cell cycle arrest, in words [9]: effectively arrested cell cycle progression
cell cycle arrest, in words [10]: effectively arrested cell cycle progression

Molecule: COc1cc(C(=O)c2cc[nH]c2)cc(OC)c1OC [Compound 9, (1H-Pyrrol-3-yl)(3,4,5-trimethoxyphenyl)methanone]
effect on tubulin polymerization (in words) [1]: did not inhibit tubulin assembly

Molecule: CNc1cccc(-n2ccc(C(=O)c3cc(OC)c(OC)c(OC)c3)c2)c1 [Compound 24, (1-(3-(Methylamino)phenyl)-1H-pyrrol-3-yl)(3,4,5-trimethoxyphenyl)methanone]
IC50 [1]: ≤ 1 µM

Molecule: COc1cc(C(=O)c2ccn(-c3cccc(N)c3)c2)cc(OC)c1OC [Compound 22, (1-(3-Aminophenyl)-1H-pyrrol-3-yl)(3,4,5-trimethoxyphenyl)-methanone]
cell cycle arrest, in words [2]: as effective as VBL and 2
cell cycle arrest (G2/M accumulation), in words [2]: effectively arrested cell cycle progression
cell cycle arrest, in words [8]: effectively arrested cell cycle progression
cell cycle arrest, in words [9]: effectively arrested cell cycle progression
cell cycle arrest, in words [10]: effectively arrested cell cycle progression
Papp [11]: > 5 ×10⁻⁶ cm/s
efflux ratio [11]: < 2

Molecule: COc1ccc(/C=C\c2cc(OC)c(OC)c(OC)c2)cc1O [Compound 2, combretastatin A-4]
IC50 [7]: > 10 µM
IC50 [12]: 0.005 ± 0.0004 µM
